Data on eight compounds can be found in patent publication US10669270B2, “Amide-sulfamide derivatives, compositions, and uses related to CXCR4 inhibition” (Emory University, priority 2016, dated 2020).

Entries after “also recorded” stand apart in the source; their conditions may differ.

The target in series [1] is T1, CXCR4 (Homo sapiens, UniProt P61073).
T1 construct: endogenous in cells; host or cells: MDA-MB-231
The series is described as follows: Primary binding affinity screening (competition with biotinylated TN14003 on MDA-MB-231 cells). The following applies: for potency compared with AMD3100: EC relative to AMD3100; for EC: MDA-MB-231 cells, compounds at 1, 10, 100, or 1000 nM, biotinylated TN14003. As to the method: For binding affinity assay, 2×10^4 MDA-MB-231 cells in 300 μL of cell culture medium were seeded in an 8-well slide chamber 2 days before the experiments were conducted. Various concentrations of different compounds (1, 10, 100, or 1000 nM) were added to the separate wells and incubated for 10 minutes at room temperature, and then the cells were fixed in 4% ice-cold paraformaldehyde. The cells were rehydrated in phosphate-buffered saline (PBS). The slides were subsequently incubated for 30 minutes at room temperature with 0.05 μg/mL biotinylated TN14003, washed three times with PBS, and incubated in streptavidin-rhodamine (1:150 dilution; Jackson ImmunoResearch Laboratories, West Grove, Pa.) for 30 minutes at room temperature. Finally, the slides were washed with PBS and mounted in an anti-fade mounting solution (Molecular Probes, Eugene, Oreg.), and the samples were analyzed on a Nikon Eclipse E800 microscope.

Series [2] relates to xylene-induced ear edema. The series is described as follows: Xylene-induced ear inflammation suppression test. The series is classed as in vivo, mice. To be noted: for inflammation suppression (mouse ear edema): 10 mg/kg i.p., 30 minutes after xylene, sacrificed 2 hours later; for histological analysis of ear: ear damage, edema, inflammatory cells. As to the method:
Five mice per group were used to determine the effect of the CXCR4 modulators. The inner and outer surfaces of the right ear of each mouse were treated with a total 30 μL of xylene for the induction of ear edema, whereas the left ear was treated with 30 μL of saline, which was used as a non-inflammation control. The selected compounds were dissolved in 10% DMSO and 90% of 45% (2-hydroxypropyl)-β-cyclodextrin (CD) in PBS. Thirty minutes after the application of xylene, 14 selected compounds were administered intraperitoneally (i.p.) at 10 mg/kg. Control animals received corresponding i.p. injections of the vehicle. The animals were sacrificed 2 hours later, and two ear plugs (7 mm in diameter) were removed from both the treated ear and the untreated ear. Weights of treated and untreated ear plugs were measured. The difference in weight of the two ear plugs was taken as a measure of edematous response. The inflammation-suppression percentage was calculated by comparing the drug-treated group to the control group.

The test system of series [3] is CXCR4/CXCL12-mediated Akt phosphorylation. The series is described as follows: Western blot analysis of Akt phosphorylation. The class given is cell-based. As to the method:
Forty micrograms of protein were separated by SDS-PAGE and transferred to a PVDF membrane (Bio-Rad, Hercules, Calif., USA). The membrane was blocked for 30 min in a blocking solution (5% milk in Trisbuffered saline containing 0.1% Tween-20) and incubated overnight at 4° C. using monoclonal rabbit anti-phospho-Akt (Ser473) antibody (Cat No., 9271) and monoclonal rabbit anti-Akt (pan) antibody (cat No., 4691) at 1:500 in blocking solution. All antibodies were purchased from Cell Signaling Technology (Danvers, USA). The membrane was incubated for 1 hour with goat anti-rabbit IgG (H+L)-HRP conjugated secondary antibody at 1:10000 (Cat No. 1706515; Bio-rad, Hercules, USA) after washing. Enzyme-linked chemiluminescence was performed to detect hybridized protein bands.
On the technique in general: In western blotting, separated proteins are transferred to a membrane and probed.

Series [4] relates to bacterial-infected J774A.1 macrophages. The series is described as follows: TNF-α secretion by bacterial-infected macrophages. The class given is cell-based.
Series [5] can be described thus: Preliminary pharmacokinetic study (plasma stability). The series is classed as in vitro ADME.
Series [6] relates to MDA-MB-231 cells. The series is described as follows: Cytotoxicity screening, MDA-MB-231. The class given is cell-based. The following applies: at 10 μM.
Series [7] deals with MCF-10A cells. The series is described as follows: Cytotoxicity screening, MCF-10A. The series is classed as cell-based. The following applies: at 10 μM.
Series [8] concerns MDA-MB-231 cells. The series is described as follows: Matrigel invasion assay. The series is classed as cell-based. To be noted: compounds 100 nM; CXCL12α 200 ng/mL; 22 hours. As to the method:
Matrigel invasion assay was performed by using a Matrigel invasion chamber from Corning Biocoat (Bedford, Mass.). CXCL12α(200 ng/mL; R & D Systems, Minneapolis, Minn.) was added to the bottom chamber to induce the invasion of MDA-MB-231 cells through the Matrigel. The selected compounds (100 nM) or AMD3100 were added to the cells before the cells were seeded in the top chamber. The Matrigel invasion chamber was incubated for 22 hours in a humidified cell culture incubator. First, non-invading cells were removed from the top of the Matrigel with a cotton-tipped swab. Invading cells on the filter at the bottom of the Matrigel were fixed in methanol and stained with hematoxylin and eosin (H & E). The percent of invasion was determined by counting the H&E stained cellc.

T1 sequence (P61073 whole entry): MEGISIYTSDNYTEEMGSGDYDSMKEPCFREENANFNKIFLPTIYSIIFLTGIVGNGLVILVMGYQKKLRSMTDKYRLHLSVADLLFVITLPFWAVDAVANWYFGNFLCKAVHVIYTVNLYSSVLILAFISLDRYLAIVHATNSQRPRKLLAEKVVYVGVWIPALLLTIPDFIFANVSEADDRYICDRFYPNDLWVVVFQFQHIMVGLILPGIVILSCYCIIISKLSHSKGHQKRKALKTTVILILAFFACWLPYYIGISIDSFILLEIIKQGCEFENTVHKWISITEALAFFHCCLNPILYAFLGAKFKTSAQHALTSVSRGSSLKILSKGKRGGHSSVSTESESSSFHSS

Consider `O=C(NCc1ccc(CNS(=O)(=O)c2ccccc2)cc1)c1ccccc1` [IIIa, N-(4-(phenylsulfonamidomethyl)benzyl)benzamide], for which the melting point (as a rule, the temperature of the solid-liquid transition) lay in the range of 139 to 141 °C. In series [1], the “potency compared with AMD3100” value is recorded as 1000 fold and the EC was determined as 1 nM. Also, in series [2], the “inflammation suppression (mouse ear edema)” value (shortened to “inflammation suppression”) is 62%.
`COc1ccccc1C(=O)NCc1ccc(CNS(=O)(=O)c2ccccc2)cc1` [IIIe, 2-Methoxy-N-(4-(phenylsulfonamidomethyl)benzyl)benzamide] came in with a melting point of 123 to 125 °C. In series [1], the “potency compared with AMD3100” value came out at 1000 fold and the EC stood at 1 nM.
For the compound `Cc1ccc(S(=O)(=O)NCc2ccc(CNC(=O)c3ccc(F)cc3)cc2)cc1` [IIj, 4-Fluoro-N-(4-((4-methylphenylsulfonamido)methyl)benzyl)benzamide], the melting point lay within 187 to 189 °C. In series [2], the “inflammation suppression” value is recorded as 75%; the “histological analysis of ear” value was “attenuated ear edema and damage substantially”. Moreover, in series [3], the “CXCR4/CXCL12-mediated phosphorylation of Akt” value is “blocked the CXCR4/CXCL12-mediated phosphorylation of Akt in a dose-dependent manner”. Also, in series [4], the “attenuation of the amount of TNF-α” value was 59%. Moreover, the plasma stability result in series [5] is reported as “favourable plasma stability”. Further, in series [6], the “inhibition of proliferation (cytotoxicity)” value is on record as “did not inhibit the proliferation”. For the same compound, the “inhibition of proliferation (cytotoxicity)” value in series [7] is “did not inhibit the proliferation”.
Compound `O=C(NCc1ccc(CNS(=O)(=O)c2ccc3c(c2)CCO3)cc1)c1cccnc1` [Ia, N-(4-((2,3-dihydrobenzofuran-5-sulfonamido)methyl)benzyl)nicotinamide] registered a melting point of 137 to 139 °C. Besides, in series [8], the “Matrigel invasion inhibition compared with AMD3100” value is recorded as “better activity than AMD3100”.
The like results for `Cc1cc(C(=O)NCc2ccc(CNS(=O)(=O)c3ccc4c(c3)CCO4)cc2)n(C)n1` [If, N-(4-((2,3-dihydrobenzofuran-5-sulfonamido)methyl)benzyl)-1,3-dimethyl-1H-pyrazole-5-carboxamide] were, in that order, 176 to 178 °C and “comparable inhibition to the reference drug AMD3100”.
In the case of `O=C(NCc1ccc(CNS(=O)(=O)c2ccc(F)cc2F)cc1)c1cncnc1` [Ig, N-(4-((2,4-difluorophenylsulfonamido)methyl)benzyl)pyrimidine-5-carboxamide], the “Matrigel invasion inhibition compared with AMD3100” value in [8] was “better activity than AMD3100”. Moreover, in [2], the “inflammation suppression” value is recorded as 56%; the “histological analysis of ear” value is “significantly attenuated the ear damage and decreased the number of inflammatory cells”. Also, the “CXCR4/CXCL12-mediated phosphorylation of Akt” value in series [3] was “blocked the phosphorylation of Akt; also recorded: blocked the CXCR4/CXCL12-mediated Akt phosphorylation in a dose-dependent manner”. Besides, the TNF-α secretion result in [4] (result in words) was “significantly suppressed”.
For the compound `O=C(NCc1ccc(CNS(=O)(=O)c2ccc3c(c2)CCO3)cc1)c1scc2c1OCCO2` [Ik], in series [8], the “Matrigel invasion inhibition compared with AMD3100” value is reported as “better activity than AMD3100”.
`Cc1nnsc1C(=O)NCc1ccc(CNS(=O)(=O)c2ccc(F)c(F)c2)cc1` [Im, N-(4-((3,4-difluorophenylsulfonamido)methyl)benzyl)-4-methyl-1,2,3-thiadiazole-5-carboxamide]: the “Matrigel invasion inhibition compared with AMD3100” value in [8] was “comparable inhibition to the reference drug AMD3100”. In addition, in series [2], the “inflammation suppression” value turned out to be 54%; the “histological analysis of ear” value is “significantly attenuated the ear damage and decreased the number of inflammatory cells”.
